The compounds below were run against T1, human kidney renin (Homo sapiens, UniProt P00797) (assay: Radioimmunoassay Screen for Renin Inhibitors (in vitro angiotensin I generation, quantitated by radioimmunoassay)). Conditions: purified human plasma angiotensinogen, pH 6.0, one hour at 37° C., read-out: Renin Inhibiton IC50.
T1 construct: Human renin was prepared from human kidney; from tissue; host or cells: human kidney
T1 sequence (P00797 67-406): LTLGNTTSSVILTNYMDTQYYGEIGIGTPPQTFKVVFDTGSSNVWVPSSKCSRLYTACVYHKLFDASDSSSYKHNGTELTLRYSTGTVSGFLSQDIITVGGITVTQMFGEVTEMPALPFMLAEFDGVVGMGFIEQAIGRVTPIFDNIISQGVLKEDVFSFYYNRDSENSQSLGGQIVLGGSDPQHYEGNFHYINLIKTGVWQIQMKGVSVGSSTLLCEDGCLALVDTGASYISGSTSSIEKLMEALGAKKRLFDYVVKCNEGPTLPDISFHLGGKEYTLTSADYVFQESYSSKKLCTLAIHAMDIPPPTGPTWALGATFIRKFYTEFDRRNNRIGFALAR
Assay type: biochemical
Experimental: The in vitro method for the screening of anti-renin compounds involves, first, angiotensin I generation, and second, the quantitation of the angiotensin I produced by radioimmunoassay.
The incubation medium consisted of 20 μl of purified human plasma angiotensinogen (1); 10 μl of human kidney renin (2); 5 μl of phenylmethylsulfonyl fluoride; 10 μl of disodium EDTA (10 mM); 10 μl of antirenin compound (5×10^-3, 5×10^-4, 5×10^-5) in dimethylformamide, or ethanol and a suitable amount of maleate buffer (77 mM, pH 6.0) to make a final volume of 500 μl. The reaction mixture was incubated for one hour at 37° C. and the enzymatic reaction was stopped by placing the tube in ice-cold water. The angiotensin I generated during the incubation was measured by a radioimmunoassay plasma renin activity kit (Clinical Assays, Inc.).
The incubation medium consisted of either 100 μl aliquots of the above reaction mixture or a standard amount of angiotensin I; 1000 μl of phosphate buffer (100 mM, pH 7.6) and 100 μl of (^125 I)angiotensinin a gamma-coat, tube. After three hours of incubation at room temperature, the tubes were decanted, and the radioactivity of each tube was determined in a gamma counter. Duplicate determinations were performed for each incubation. The results were expressed in ng of angiotensin I generated per ml of generation medium per hour of incubation (ng/AI/ml/hr).
(1) The human plasma angiotensinogen derived from the blood of a person receiving oral contraceptive pills was purified by chromatography on a pepstatinaminohexyl-agarose column.
(2) Human renin was prepared from human kidney.
`CC(C)C[C@H](NC(=O)[C@@H](CC(=O)N1CCOCC1)Cc1ccccc1)C(=O)N[C@@H](CC1CCCCC1)[C@@H](O)c1nccs1` was tested, and the IC50 was 80000 nM.
Work on `O=C(N[C@@H](Cc1c[nH]cn1)C(=O)N[C@@H](CC1CCCCC1)[C@@H](O)c1nccs1)[C@@H](CC(=O)N1CCOCC1)Cc1ccccc1` yielded an IC50 of 15000 nM.
`CC(C)C[C@H](NC(=O)[C@@H](CC(=O)NC(C)(C)C)Cc1ccccc1)C(=O)N[C@@H](CC(C)C)[C@@H](O)c1nccs1` gave an IC50 of 67000 nM.
In the case of `CC(C)C[C@H](NC(=O)[C@H](Cc1c[nH]cn1)NC(=O)[C@@H](CC(=O)NC(C)(C)C)Cc1ccccc1)[C@@H](O)c1nccs1`, the IC50 is reported as 65000 nM.
Compound `CC(C)C[C@H](NC(=O)[C@@H](CC(=O)OC(C)(C)C)Cc1cccc2ccccc12)C(=O)N[C@@H](CC(C)C)[C@@H](O)c1nccs1` has an IC50 of 550 nM.
Compound `CC(C)C[C@H](NC(=O)[C@@H](CC(=O)OC(C)(C)C)Cc1cccs1)C(=O)N[C@@H](CC(C)C)[C@@H](O)c1nccs1` has an IC50 of 100000 nM.
In the case of `CC(C)C[C@H](NC(=O)[C@@H](CC(=O)N1CCOCC1)Cc1cccc2ccccc12)C(=O)N[C@@H](CC(C)C)[C@@H](O)c1nccs1`, the IC50 is reported as 250 nM.
With `CC(C)C[C@H](NC(=O)[C@@H](CC(=O)NCCc1ccccc1)Cc1cccc2ccccc12)C(=O)N[C@@H](CC(C)C)[C@@H](O)c1nccs1` the IC50 was 730 nM.
`Cn1cccc1CCNC(=O)C[C@@H](Cc1cccc2ccccc12)C(=O)N[C@@H](Cc1cnc[nH]1)C(=O)N[C@@H](CC1CCCCC1)[C@@H](O)c1nccs1` was tested, and the IC50 was 340 nM.
`O=C(N[C@@H](Cc1cnc[nH]1)C(=O)N[C@@H](CC1CCCCC1)[C@@H](O)c1cccs1)[C@@H](CC(=O)N1CCOCC1)Cc1cccc2ccccc12` was tested, and the IC50 was 270 nM.
`CC(C)C[C@H](NC(=O)[C@H](Cc1ccccc1)OC(=O)N1CCOCC1)C(=O)N[C@@H](CC1CCCCC1)[C@@H](O)c1ccccn1` gave an IC50 of 770 nM.
In the case of `CC(C)C[C@H](NC(=O)[C@H](Cc1ccccc1)OC(=O)N1CCOCC1)C(=O)N[C@@H](CC1CCCCC1)[C@@H](O)c1cccs1`, the IC50 is reported as 270 nM.
Compound `CC(C)C[C@H](NC(=O)[C@H](Cc1ccccc1)OC(=O)N1CCSCC1)C(=O)N[C@@H](CC1CCCCC1)[C@@H](O)c1cccs1` has an IC50 of 500 nM.
`CC(C)C[C@H](NC(=O)[C@H](Cc1ccccc1)OC(=O)N1CCSCC1)C(=O)N[C@@H](CC1CCCCC1)[C@@H](O)c1ccccn1` was tested, and the IC50 was 840 nM.
Work on `CC(C)C[C@H](NC(=O)[C@H](Cc1ccccc1)OC(=O)N1CCOCC1)C(=O)N[C@@H](CC1CCCCC1)[C@@H](O)c1ccco1` yielded an IC50 of 100 nM.
In the case of `CC(C)C[C@H](NC(=O)[C@H](Cc1ccccc1)OC(=O)N1CCSCC1)C(=O)N[C@@H](CC1CCCCC1)[C@@H](O)c1ccco1`, the IC50 is reported as 47 nM.
`CC(C)C[C@H](NC(=O)[C@@H](CC(=O)N1CCOCC1)Cc1cccc2ccccc12)C(=O)N[C@@H](CC1CCCCC1)[C@@H](O)c1ccco1` gave an IC50 of 8.8 nM.
Work on `CC(C)C[C@H](NC(=O)[C@H](Cc1ccccc1)OC(=O)N1CCOCC1)C(=O)N[C@@H](CC1CCCCC1)[C@@H](O)c1nccs1` yielded an IC50 of 11 nM.
`O=C(N[C@@H](Cc1cnc[nH]1)C(=O)N[C@@H](CC1CCCCC1)[C@@H](O)c1ccco1)[C@@H](CC(=O)N1CCOCC1)Cc1cccc2ccccc12` was tested, and the IC50 was 4.9 nM.
`CC(=O)N1CCN(C(=O)O[C@@H](Cc2ccccc2)C(=O)N[C@@H](CC(C)C)C(=O)N[C@@H](CC2CCCCC2)[C@@H](O)c2ccco2)CC1` showed an IC50 of 42 nM.
Work on `COCCNC(=O)O[C@@H](Cc1ccccc1)C(=O)N[C@@H](CC(C)C)C(=O)N[C@@H](CC1CCCCC1)[C@@H](O)c1ccco1` yielded an IC50 of 1700 nM.
In the case of `CC(C)C[C@H](NC(=O)[C@H](Cc1ccccc1)OC(=O)N1CCC2(CC1)OCCO2)C(=O)N[C@@H](CC1CCCCC1)[C@@H](O)c1ccco1`, the IC50 is reported as 210 nM.
Compound `CC(C)C[C@H](NC(=O)[C@H](CC1CCCCC1)OC(=O)N1CCOCC1)C(=O)N[C@@H](CC1CCCCC1)[C@@H](O)c1ccco1` has an IC50 of 180 nM.
For `CC(C)C[C@H](NC(=O)[C@H](Cc1ccccc1)OC(=O)N1CCNC(=O)C1)C(=O)N[C@@H](CC1CCCCC1)[C@@H](O)c1ccco1`, the IC50 was 0.19 nM.
Compound `CC(C)C[C@H](NC(=O)[C@H](Cc1ccccc1)OC(=O)N1CCC(=O)CC1)C(=O)N[C@@H](CC1CCCCC1)[C@@H](O)c1ccco1` has an IC50 of 58 nM.

From patent US5104869A, “Renin inhibitors” (American Cyanamid Company, priority 1990, dated 1992)
